The record followed here is PMC3136114 (2011).

The test system of this assay is c-Myc duplex (18 bp, d(AGGGTGGGG)2:d(CCCCACCCT)2) (DNA, duplex) AGGGTGGGGAGGGTGGGG/CCCCACCCTCCCCACCCT
Put plainly: UV absorption titration, Scatchard. The following applies: 137 mM Na+ (NaCl), 5.4 mM K+ (KCl), 1.3 mM Ca2+, 1 mM Mg2+; Hanks' buffer, pH 7.2, 20 °C; single type of site; per site.

For the compound `O=C1NC(=O)c2c1c1c3ccccc3[nH]c1c1c2c2ccccc2n1[C@@H]1OC[C@H](O)[C@H](O)[C@H]1O`, the K1 is recorded as 0.8 ± 0.1 × 10^6 M^-1.
